Data set [1] in a line: Cytotoxicity, MTT method, mock-infected HeLa cells. It counts as cell-based. To be noted: human, concentration reducing viability of mock-infected HeLa cells by 50%. The method, then:
(§1) HeLa cells were seeded in 96-well plates at a density of 5 × 10^5 cells/mL, in minimum essential medium with Earle’s salts (MEM-E), L-glutamine, 1 mM sodium pyruvate, and 25 mg/L kanamycin, supplemented with 10% fetal bovine serum (FBS). Vero-76 and LLC-MK2 cells were seeded in 96-well plates at a density of 5 × 10^5 cells/mL in Dulbecco’s modified eagle medium (D-MEM) with L-glutamine and 25 mg/L kanamycin, complemented with 10% FBS. Cell cultures were then incubated in a humidified, 5% CO2 atmosphere at 37 °C, with or without serial dilutions of analyzed compounds. The medium used for the cytotoxic assay, as well as for antiviral assays, included 1% of the proper serum. Cell viability was determined after 72–120h at 37 °C by MTT method.
(§2) The size of cell growth/viability and viral multiplication at each tested drug concentration was expressed as percentage of untreated controls. Concentrations resulting in 50% inhibition (CC50 or EC50) were determined by linear regression analysis.
For orientation: Tetrazolium dyes change colour on reduction, which living cells bring about.

Data set [2] in a line: Cytotoxicity, MTT method, mock-infected Vero-76 cells. It counts as cell-based. To be noted: African green monkey (Cercopithecus aethiops), concentration reducing viability of mock-infected Vero-76 cells by 50%, read-out: CC50 Vero76. How it is done:
as §1, §2

Data set [3] has as its system CVB3. Nature of the data set: Plaque-reduction assay, CVB3 in Vero-76 cells. It counts as cell-based, human enterovirus B. The method, then:
(§3) The activity of compounds against EV-A71 and D68 was based on inhibition of virus-induced cytopathogenicity in HeLa and Vero-76 cells, respectively, acutely infected at a multiplicity of infection (m.o.i.) of 0.01. After a 72 or 120 h incubation at 37 °C, cell viability was verified by the MTT method, as previously described. The activity of compounds against CVB3, CVB4, CVB5, and E9 was determined in infected cell monolayers by plaque-reduction assays, as previously reported. Briefly, the monolayer of Vero-76 cells or LLC-MK2 (E9) was grown overnight on a 24-well plate. The cells were then infected for 2 h with 250 μL of proper virus dilutions to obtain 50–100 PFU/well. Following removal of the unadsorbed virus, 500 μL of the medium (D-MEM with L-glutamine, 4500 mg/L D-glucose, and 1% inactivated FBS) containing 0.75% methyl-cellulose, with serial dilutions of quinoxalines, was added. The overlay was also added to untreated wells (non-infection controls). Cultures were incubated at 37 °C for 3 (CVB3, CVB4, CVB5) or 5 days (E9) and then fixed with PBS containing 50% ethanol and 0.8% crystal violet, washed and air-dried. Plaques were then counted.
as §2

In data set [4] the test system is CVB3. The data set is described as follows: Virus yield reduction assay (YRA), CVB3 in Vero-76 cells. To be noted: m.o.i. 0.1, 72 h; for Reduction of CVB3 viral titers (trend over concentrations): non-cytotoxic concentrations (100, 20, 4, 0.8 µM). It counts as cell-based, human enterovirus B. The method, then: (§4) Vero-76 and LL-MKC cells were inoculated with CVB3, CVB4, or E9 at an m.o.i. of 0.1 in maintenance medium and compounds at non-cytotoxic concentrations. After the adsorption period (2 h) at 37 °C and 5% CO2, the inoculum was removed and replaced with fresh medium containing the same concentration of compounds. After 72 h for CVB3 and CVB4 or 120 h for E9 at 37 °C and 5% CO2, each sample was collected and diluted with serial passages, starting from 10^−1, up to 10^−10. The titers of the supernatants were quantified by standard plaque assay. NM 107 (2’-C-Methyl-Cytidine) and pleconaril were employed as reference compounds.

The test system of data set [5] is EV-D68. The data set is described as follows: Inhibition of EV-D68-induced cytopathogenicity, MTT method. The data set is classed as cell-based, human enterovirus D 68. To be noted: Enterovirus D, EVD68, 72 h; HeLa cells, MTT method after 3 days p.i. How it is done: as §3, with “After” for “The activity of compounds against EV-A71 and D68 was based on inhibition of virus-induced cytopathogenicity in HeLa and Vero-76 cells, respectively, acutely infected at a multiplicity of infection (m.o.i.) of 0.01. After”
as §2
A general note: Damage to the host cells serves as the signal in cytopathic effect assays.

In data set [6] the test system is CVB4. The data set is described as follows: Virus yield reduction assay (YRA), CVB4 in Vero-76 cells. To be noted: m.o.i. 0.1, 72 h. It counts as cell-based, human enterovirus B. How it is done:
as §4

For data set [7], the system named is CVB4. The data set is described as follows: Adsorption assay, CVB4 in Vero-76 cells. It counts as cell-based, human enterovirus B. To be noted: 20 µM, 2 h at 4 °C, m.o.i. 0.1, Vero-76 cells. The method, then:
(§5) Vero-76 cells were incubated with CVB3 and CVB4 (m.o.i. = 0.1) and derivatives 6 or 7 for 2 h at 4 °C, using compound concentrations of 20 µM. […] LLC-MK2 cells were incubated with E9 and derivative 8 (Figure 3e) under the above-described experimental conditions. To identify the replication stage inhibited by quinoxaline derivatives, we performed a time-of-drug addiction assay (T.O.A.) (Figure 3a–e). Experiments were carried out on CVB3-, CVB4-,and E9-infected cells (m.o.i. = 1) treated with compounds (20 µM) at different step times of infection until 12 h post-infection, followed by virus titer determination by plaque assay.
(§6) Vero-76 and LLC-MK2 cells grown in 24-well plates were infected with CVB3, CVB4, and E9, at an m.o.i. of 0.1, with or without test compounds, and incubated for 120 min at 4 °C. Medium containing unbound virus was then removed, and cells were washed twice with PBS and overlayed with fresh medium. Plaques were counted after 72 h of incubation at 37 °C.

Data set [8] deals with CVB4. The data set is described as follows: Plaque-reduction assay, CVB4 in Vero-76 cells. The data set is classed as cell-based, human enterovirus B. How it is done:
as §3, §2
(In general: In a plaque reduction assay, fewer plaques than in the control indicate reduced infectivity or spread.)

The test system of data set [9] is EV-A71. The data set is described as follows: Inhibition of EV-A71-induced cytopathogenicity, MTT method. The data set is classed as cell-based, human enterovirus A71. To be noted: Enterovirus A, EVA71, 96 h, 50% protection of Vero-76 cells from EV-A71-induced cytopathogenicity, day 4/5 p.i.
Data set [10] in a line: Cytotoxicity, MTT method, mock-infected LLC-MK2 cells. It counts as cell-based. To be noted: rhesus monkey, concentration reducing viability of mock-infected LLC-MK2 cells by 50%. The method, then: as §1, §2
Data set [11] has as its system E9. The data set is described as follows: Plaque-reduction assay, E9 in LLC-MK2 cells. The data set is classed as cell-based, human enterovirus B. To be noted: Enterovirus B; for EC50: concentration reducing plaque number by 50%. The method, then: as §3, §2
Data set [12] concerns CVB3. The data set is described as follows: Adsorption assay, CVB3 in Vero-76 cells. It counts as cell-based, human enterovirus B. To be noted: 20 µM, 2 h at 4 °C, m.o.i. 0.1, Vero-76 cells. The method, then: as §5, §6
In data set [13] the test system is E9. Nature of the data set: Virus yield reduction assay (YRA), E9 in LLC-MK2 cells. It counts as cell-based, human enterovirus B. How it is done:
as §4

Where [14] appears, read: Enterovirus B, CVB3, Vero 76, concentration reducing plaque number by 50%.
[15] abbreviates: Enterovirus B, CVB3, Vero 76, concentration reducing plaque number by 90%.
[16] abbreviates: concentration reducing plaque number by 50%.
Where [17] appears, read: concentration reducing plaque number by 90%.
Where [18] appears, read: Enterovirus B, CVB4, Vero 76, concentration reducing plaque number by 50%.
Where [19] appears, read: Enterovirus B, CVB4, Vero 76, concentration reducing plaque number by 90%.

In the case of `CCOC(=O)c1ccc(SCc2ccc3nc(OC)c(OC)nc3c2)cc1` [Compound 6], the CC50 in data set [1], in data set [2] and in data set [10] was over 100 µM in each case. The EC50 (in general, the midpoint of the concentration-response curve) is 2000 to 3000 nM in data set [3] (setting [14]); 2500 nM in data set [3] (setting [16]); over 100 µM in [5]; 1700 nM in [8] (setting [18]); over 100 µM in data set [9]; over 100 µM in [11]. In addition, the EC90 (as a rule, the point of the concentration-response curve where the effect stands at 90%) in data set [3] (setting [15]) turned out to be 12 µM; in data set [3] (setting [17]) it was 13 µM; in [8] (setting [19]) it was 12 µM. For the same compound, in data set [4], the “Reduction of CVB3 viral titers (trend over concentrations)” value was “same trend of reduction in viral loads”. For the same compound, the “Reduction of CVB4 viral titers” value in [6] (0.8 µM) was 2 logs; in data set [6] (4 µM) it was 2.5 logs. The “Effect on CVB4 viral titers” value in data set [6] (100 and 20 µM) was “complete suppression”. Besides, the “CVB4 virus titer in comparison to the untreated infected control” value in data set [7] is “detectable reduction of the virus titer”. In data set [12], the “CVB3 virus titer in comparison to the untreated infected control” value is reported as “detectable reduction of the virus titer”.
Turning to `COc1nc2ccc(CSc3ccc(C(=O)O)cc3)cc2nc1OC` [Compound 7], the CC50 (usually the concentration giving 50% cytotoxicity) was determined as 95 µM in [1], 100 µM in [2] and 100 µM in data set [10]. The EC50 in [3] (setting [14]) is 2000 to 3000 nM; in data set [3] (setting [16]), 2000 nM; in data set [5], over 95 µM; in data set [8] (setting [18]), 1500 nM; in [8] (setting [16]) it was 1450 nM; in data set [9] it was over 100 µM. The same compound returned an EC50 in data set [11] of over 100 µM. Further, the EC90 in data set [3] (setting [15]) came to 14 µM; in data set [8] (setting [19]) it was 3 µM; in data set [8] (setting [17]) it was 3.2 µM. For the same compound, the “Reduction in CVB3 viral load” value in [4] (4 µM) is reported as “one log reduction in viral load”. Moreover, the “Reduction of CVB3 viral titers (trend over concentrations)” value in data set [4] was “dose-dependent reduction of viral titers”. In [6] (0.8 µM), the “Inhibition of CVB4” value is listed as “no significant inhibition”. In addition, the “Production of CVB4 virus” value in data set [6] (100, 20, and 4 µM) is “completely inhibited”. Besides, the “CVB4 virus titer in comparison to the untreated infected control” value in data set [7] is “detectable reduction of the virus titer”. Further, the “CVB3 virus titer in comparison to the untreated infected control” value in data set [12] is on record as “detectable reduction of the virus titer”.
With `CCOC(=O)c1ccc(SCc2ccc3nc(OC)c(OC)nc3c2)nc1` [Compound 8], the CC50 in [1], in data set [2] and in data set [10] was over 100 µM throughout. The “Effect on E9 viral replication” value in [13] (100 and 20 µM, m.o.i. 0.1, 120 h) was “completely suppressed viral replication”. Also, the “Reduction in E9 viral loads” value in data set [13] (lower concentrations (below 20 µM)) was “no reduction in viral loads”. In addition, the EC50 is over 100000 nM in data set [3] (setting [14]); 50 µM in data set [5]; over 100000 nM in data set [8] (setting [18]); over 100 µM in [9]; 6 µM in data set [11]. Moreover, in data set [11] (setting [17]), it took 16 µM to reach the 90% level (EC90).
For the compound `COc1nc2ccc(CSc3ccc(C(=O)O)cn3)cc2nc1OC` [Compound 9], the CC50 is over 100 µM in data set [1], 100 µM in [2] and 100 µM in data set [10]. Moreover, the EC50 in data set [3] (setting [14]) is 100000 nM; in data set [5], 70 µM; in data set [8] (setting [18]), over 100000 nM; in [9], over 100 µM; in [11], 55 µM.
Turning to `C[C@@]1(O)[C@H](O)[C@@H](CO)O[C@H]1n1ccc(N)nc1=O` [NM107, 2′-C-methylcytidine, reference compound], in [2], the CC50 was over 100 µM. Also, the EC50 is 29000 ± 3000 nM in data set [3] (setting [14]) and 6 ± 1 µM in data set [9].
In the case of `Cc1cc(CCCOc2c(C)cc(-c3noc(C(F)(F)F)n3)cc2C)on1` [PLe, Pleconaril, reference compound], the half-maximal cytotoxic concentration (CC50) in data set [1], in data set [2] and in [10] was over 100 µM in each case. In addition, the figures for the EC50 in data set [5], in data set [8] (setting [18]) and in [11] were 0.4 ± 0.2 µM, 2000 ± 1000 nM and 0.1 ± 0.05 µM, respectively.

The record behind these values is publication PMC8878107, “Human Enterovirus B: Selective Inhibition by Quinoxaline Derivatives and Bioinformatic RNA-Motif Identification as New Targets” (Pharmaceuticals, 2022).
